Format in all cases: cell-based
What all share (conditions): 72 hours

The test system of assay [1] is H460 (human lung cancer cell). Description: In vitro anti-tumor cellular activity (MTT), H460. Here is the method:
(§1) After pouring the cell dissociation buffer to the centrifugetube, nutrient solution was added to stop digestion. The centrifugetube were centrifuged for 10 min under 800 r/min, the liquid supernatant was removed, 5 mL culture solution was added, after mixing by pipetting the cell, took 10 μL cell suspension to the cell counting plat, and adjusted the cell concentration to 10^4/well. Among the 96 wells, A1 is empty, 100 μL of cell suspension were added to the other wells. The 96 well plates were incubated in the incubator for 24 h. […] The 96-well plates were placed in an incubator and cultivated for 72 hours. (3) The culture media containing the compounds in the 96-well plates was discarded, and the cells were washed with phosphate buffered solution (PBS) twice. Each well was added with 100 μL MTT (tetrazole) (0.5 mg/mL), and then placed in an incubator to incubate for 4 hours, after which MTT solution was discarded and 100 μL dimethyl sulfoxide was added thereto.

Assay [2] concerns HT-29 (colon cancer cell). As to the kind of experiment: In vitro anti-tumor cellular activity (MTT), HT-29. Here is the method: as §1
In assay [3] the test system is MKN-45 (human gastric carcinoma cell). Description: In vitro anti-tumor cellular activity (MTT), MKN-45. As for the experimental part:
as §1

The test system of assay [4] is SMMC-7721 (hepatoma cell). Description: In vitro anti-tumor cellular activity (MTT), SMMC-7721. As for the experimental part: as §1
The subject of assay [5] is MDA-MB-231 (human beast cancer cell). Description: In vitro anti-tumor cellular activity (MTT), MDA-MB-231. As for the experimental part:
as §1

For assay [6], the system named is U87MG (Human malignant glioblastoma cell). As to the kind of experiment: In vitro anti-tumor cellular activity (MTT), U87MG. Here is the method: as §1

For the compound “(E)-N^1-(3-fluoro-4-(6-methoxy-7-(3-(piperidin-1-yl)propoxy)quinoline-4-yloxy)phenyl)-N^4-(2-nitrobenzaldehyde)thiosemicarbazone [Example 34]”, in assay [1], the “H460 IC50” value worked out at 0.089 µg/mL. The “HT-29 IC50” value in assay [2] was found to be 0.076 µg/mL. In addition, the “MKN-45 IC50” value in assay [3] was found to be 0.12 µg/mL. Besides, the “SMMC-7721 IC50” value in assay [4] came to 0.24 µg/mL. Further, in assay [5], the “MDA-MB-231 IC50” value was found to be 0.077 µg/mL. In addition, the “U87MG IC50” value in assay [6] amounted to 0.19 µg/mL.
Regarding `COc1cc2c(Oc3ccc(NC(=S)N/N=C/c4ccccc4[N+](=O)[O-])cc3F)ccnc2cc1OCCCN1CCCC1` [Example 32], the “H460 IC50” value in assay [1] worked out at 0.19 µg/mL. Further, the “HT-29 IC50” value in assay [2] was found to be 0.24 µg/mL. For the same compound, the “MKN-45 IC50” value in assay [3] is 0.33 µg/mL. Moreover, the “SMMC-7721 IC50” value in assay [4] worked out at 0.77 µg/mL. For the same compound, the “MDA-MB-231 IC50” value in assay [5] worked out at 0.13 µg/mL. Moreover, the “U87MG IC50” value in assay [6] is 1.2 µg/mL.
As to `N.N.[Cl][Pt][Cl]` [Cisplatin, reference compound], the “H460 IC50” value in assay [1] amounted to 0.23 µg/mL. In addition, the “HT-29 IC50” value in assay [2] amounted to 1.0 µg/mL. Also, the “MKN-45 IC50” value in assay [3] was 0.68 µg/mL. For the same compound, in assay [4], the “SMMC-7721 IC50” value amounted to 0.90 µg/mL. For the same compound, the “MDA-MB-231 IC50” value in assay [5] is 0.46 µg/mL. Also, the “U87MG IC50” value in assay [6] was found to be 0.19 µg/mL.
`COc1cc2c(Oc3ccc(C=NNC(=O)Nc4cccc(Br)c4)cc3F)ccnc2cc1OCCCN1CCOCC1` [Example 54, (E)-N^1-(3-bromophenyl)-N^4-(3-fluoro-4-(6-methoxy-7-(3-(morpholin-4-yl)propoxy)quinoline-4-yloxy)benzaldehyde)semicarbazone]: in assay [1], the “H460 IC50” value was 1.5 µg/mL. Further, the “HT-29 IC50” value in assay [2] came to 1.3 µg/mL. In addition, in assay [3], the “MKN-45 IC50” value came to 2.0 µg/mL. Further, the “SMMC-7721 IC50” value in assay [4] was found to be 2.7 µg/mL. The “MDA-MB-231 IC50” value in assay [5] is 0.96 µg/mL. Further, the “U87MG IC50” value in assay [6] amounted to 1.8 µg/mL.
In the case of `COc1cc2c(Oc3ccc(NC(=O)N/N=C/c4ccc(Cl)cc4Cl)cc3F)ccnc2cc1OCCCN1CCCC1` [Example 19, (E)-N^1-(3-fluoro-4-(6-methoxy-7-(3-(pyrrolidin-1-yl)propox)quinoline-4-yloxy)phenyl)-N^4-(2,4-dichlorobenzaldehyde)semicarbozone], the “H460 IC50” value in assay [1] was determined as 0.96 µg/mL. Further, in assay [2], the “HT-29 IC50” value worked out at 1.4 µg/mL. In addition, the “MKN-45 IC50” value in assay [3] worked out at 0.71 µg/mL. Also, the “SMMC-7721 IC50” value in assay [4] is 0.97 µg/mL. Moreover, the “MDA-MB-231 IC50” value in assay [5] was found to be 1.2 µg/mL. Moreover, in assay [6], the “U87MG IC50” value is 1.9 µg/mL.
On to `COc1cc2c(Oc3ccc(NC(=S)N/N=C/c4ccccc4)cc3F)ccnc2cc1OCCCN1CCCC1` [Example 36, (E)-N^1-(3-fluoro-4-(6-methoxy-7-(3-(pyrrolidin-1-yl)propoxy)quinoline-4-yloxy)phenyl)-N^4-(benzaldehyde)thiosemicarbazone], for which the “H460 IC50” value in assay [1] is 0.034 µg/mL. The “HT-29 IC50” value in assay [2] was 0.012 µg/mL. Also, the “MKN-45 IC50” value in assay [3] amounted to 0.11 µg/mL. The “SMMC-7721 IC50” value in assay [4] is 0.35 µg/mL. The “MDA-MB-231 IC50” value in assay [5] stood at 0.048 µg/mL. The “U87MG IC50” value in assay [6] was 0.29 µg/mL.
For `COc1cc2c(Oc3ccc(NC(=S)N/N=C/c4ccccc4)cc3F)ccnc2cc1OCCCN1CCOCC1` [Example 38, (E)-N^1-(3-fluoro-4-(6-methoxy-7-(3-(morpholin-4-yl)propoxy)quinoline-4-yloxy)phenyl)-N^4-(benzaldehyde)thiosemicarbazone], in assay [1], the “H460 IC50” value came out at 0.16 µg/mL. In addition, in assay [2], the “HT-29 IC50” value came out at 0.28 µg/mL. In addition, the “MKN-45 IC50” value in assay [3] came out at 0.11 µg/mL. Further, in assay [4], the “SMMC-7721 IC50” value was 1.4 µg/mL. Also, in assay [5], the “MDA-MB-231 IC50” value worked out at 0.18 µg/mL. Moreover, the “U87MG IC50” value in assay [6] stood at 0.90 µg/mL.
Regarding `COc1cc2c(Oc3ccc(NC(=S)NN=Cc4ccc(F)cc4Cl)cc3F)ccnc2cc1OCCCN1CCN(C)CC1` [Example 42, (E)-N^1-(3-fluoro-4-(6-methoxy-7-(3-(4-methyl-1-piperazinyl)propoxy)quinoline-4-yloxy)phenyl)-N^4-(2-chloro-4-fluorobenzaldehyde)thiosemicarbazone], the “H460 IC50” value in assay [1] stood at 0.38 µg/mL. The “MKN-45 IC50” value in assay [3] was 0.34 µg/mL. In assay [4], the “SMMC-7721 IC50” value was found to be 0.96 µg/mL. For the same compound, the “MDA-MB-231 IC50” value in assay [5] turned out to be 0.29 µg/mL. The “U87MG IC50” value in assay [6] came out at 1.0 µg/mL.
Take `COc1cc2c(Oc3ccc(/C=N/NC(=S)Nc4cccc(Br)c4)cc3F)ccnc2cc1OCCCN1CCOCC1` [Example 65, (E)-N^1-(3-bromophenyl)-N^4-(3-fluoro-4-(6-methoxy-7-(3-(morpholin-4-yl)propoxy)quinoline-4-yloxy)benzaldehyde)thiosemicarbazone]: the “H460 IC50” value in assay [1] was 2.4 µg/mL. Moreover, the “HT-29 IC50” value in assay [2] was 1.9 µg/mL. For the same compound, the “MKN-45 IC50” value in assay [3] is 4.8 µg/mL. The “SMMC-7721 IC50” value in assay [4] is 2.8 µg/mL. In addition, the “MDA-MB-231 IC50” value in assay [5] turned out to be 2.1 µg/mL. The “U87MG IC50” value in assay [6] was found to be 3.4 µg/mL.
Regarding `COc1cc2c(Oc3ccc(NC(=S)NN=Cc4ccc(Cl)cc4Cl)cc3F)ccnc2cc1OCCCN1CCN(C)CC1` [Example 40, (E)-N^1-(3-fluoro-4-(6-methoxy-7-(3-(4-methyl-1-piperazinyl)propoxy)quinoline-4-yloxy)phenyl)-N^4-(2,4-dichlorobenzaldehyde)thiosemicarbazone], in assay [1], the “H460 IC50” value turned out to be 2.8 µg/mL. For the same compound, in assay [2], the “HT-29 IC50” value was found to be 1.9 µg/mL. For the same compound, the “MKN-45 IC50” value in assay [3] worked out at 1.5 µg/mL. For the same compound, in assay [4], the “SMMC-7721 IC50” value worked out at 3.1 µg/mL. For the same compound, the “MDA-MB-231 IC50” value in assay [5] came out at 1.9 µg/mL.
For the compound “(E)-N^1-(3-fluoro-4-(6-methoxy-7-(3-(morpholin-4-yl)propoxy)quinoline-4-oxy)phenyl)-N^4-(3,4-difluorobenzaldehyde)semicarbazone [Example 23]”, in assay [1], the “H460 IC50” value is 3.6 µg/mL. Also, in assay [3], the “MKN-45 IC50” value was 5.7 µg/mL. The “SMMC-7721 IC50” value in assay [4] came to 5.9 µg/mL. Further, the “MDA-MB-231 IC50” value in assay [5] worked out at 2.9 µg/mL. For the same compound, the “U87MG IC50” value in assay [6] worked out at 5.6 µg/mL.
Consider `CCC(=NNC(=O)Nc1ccc(Oc2ccnc3cc(OCCCN4CCCCC4)c(OC)cc23)c(F)c1)c1ccccc1` [Example 30, (E)-N^1-(3-fluoro-4-(6-methoxy-7-(3-(piperidin-1-yl)propoxy)quinoline-4-yloxy)phenyl)-N^4-(propiophenone)thiosemicarbazone], for which, in assay [1], the “H460 IC50” value was 0.0012 µg/mL. For the same compound, in assay [3], the “MKN-45 IC50” value amounted to 0.0020 µg/mL. Besides, the “SMMC-7721 IC50” value in assay [4] worked out at 0.44 µg/mL. In addition, in assay [5], the “MDA-MB-231 IC50” value amounted to 0.0021 µg/mL. For the same compound, the “U87MG IC50” value in assay [6] is 0.051 µg/mL.
For “(E)-N^1-(3-fluoro-4-(6-methoxy-7-(3-(piperidin-1-yl)propoxy)quinoline-4-yloxy)phenyl)-N^4-(2-chloro-4-fluorobenzaldehyde)thiosemicarbazone [Example 43]”, the “H460 IC50” value in assay [1] came to 0.0067 µg/mL. Also, the “HT-29 IC50” value in assay [2] came to 0.0031 µg/mL. Moreover, in assay [4], the “SMMC-7721 IC50” value was 0.069 µg/mL. In addition, the “MDA-MB-231 IC50” value in assay [5] was determined as 0.0029 µg/mL. Moreover, the “U87MG IC50” value in assay [6] came to 0.092 µg/mL.
